Test results reported in patent US7414078B2, “Oral general anesthetics and metabolitically resistant anticonvulsants” (University of Virginia Patent Foundation, priority 2001, dated 2008).
Read-outs that look alike come from different tables or passages of the source.

Assays:
blood dyscrasias, rash = conditions: 1950's findings; cited from earlier work
[1] = system: Isoflurane anesthesia (minimum alveolar concentration, MAC); experiment: General anesthesia test: reduction of isoflurane MAC after i.p. compound; type: in vivo, rats
Description: The MAC value is the minimum alveolar concentration of anesthetic at 1 atm that produces immobility in 50% of the subjects.
200 mg of each compound are tested for general anesthesia activity Testing is performed on rats to determine the percent reduction in the use of isoflurane. Inhaled anesthetics still need to be utilized to rapidly adjust the level of anesthesia. Since no single anesthetic is capable of all four requirements for anesthesia, a combination is utilized. The rats were first anesthetized with isoflurane, intubated, ventilated and then a femoral line was inserted. After the rat had been stable for 15 minutes, the initial minimum alveolar concentration (MAC) value was determined. […] After 30 minutes the second MAC value was determined post administration. Finally, after one hour the third MAC value was determined. At each MAC determination, a sample of blood was taken to determine pH, pCO2, and pO2. The results of the compounds tested to date are compared to the lead compound 17.
A classical comparison of log P and MAC reduction was investigated. A graph representing the effects of log P on the biological activity is presented in graphic form (See FIG. 1). The general anesthetic activity of compounds 20-23 and 36-43 were compared to lead compound 17 as represented in the graph (FIG. 1) and in Table 1. The partition coefficient, P, is a measure of the way the compound distributes itself between octanol and water. […] Therefore, meta-substituted derivatives 20 will be the focus of future synthesize. Bulky substituents on the alcohol were also found to have low activity.

seizures = conditions: cited from earlier work; for anticonvulsant activity: tested in the 1950's
rats = experiment: Anticonvulsant testing of compound 17 in rats (oral ED50, toxicity, surgical anesthesia); type: in vivo
Excerpt: In addition increased halogen size and saturation at the position 3 carbon also increase anesthetic activity. A hydrogen bond donor is also important at the position 2 carbon, but bulk is not well tolerated.

[2] = system: blood pressure / hemodynamics; experiment: Hemodynamic effects during isoflurane anesthesia; type: in vivo, rats; conditions: rat, in vivo
Description: 200 mg of each compound are tested for general anesthesia activity Testing is performed on rats to determine the percent reduction in the use of isoflurane. Inhaled anesthetics still need to be utilized to rapidly adjust the level of anesthesia. Since no single anesthetic is capable of all four requirements for anesthesia, a combination is utilized. The rats were first anesthetized with isoflurane, intubated, ventilated and then a femoral line was inserted. After the rat had been stable for 15 minutes, the initial minimum alveolar concentration (MAC) value was determined. Then, 60 mg/kg of drug was sonicated in 3 mL of peanut oil and injected (i.p.). After 30 minutes the second MAC value was determined post administration. Finally, after one hour the third MAC value was determined. At each MAC determination, a sample of blood was taken to determine pH, pCO2, and pO2. The results of the compounds tested to date are compared to the lead compound 17.

SMILES	toxicity (blood dyscrasias, rash)	anesthetic activity ([1]; rat, in vivo)	mice protected against seizures (seizures; racemic mixture, 250 mg/kg)	anticonvulsant activity (seizures)	anticonvulsant activity (seizures; listed as atrolactamide (themisone))	ED50 (rats; Rattus norvegicus, rats, oral, read-out: anesthetic activity, oral ED50)	toxicity at dose (rats; rats, oral)	stage of anesthesia exhibited by animals (rats; third stage: general loss of spinal reflexes and muscle tone)	lowering of minimum alveolar concentration (MAC) value of isoflurane ([1]; isoflurane 1.2% in O2, dose not stated)	MAC value of Isoflurane at 60 mg/kg of compound ([1]; rats, 60 mg/kg i.p. in peanut oil, 1.2% isoflurane generates 100% anesthesia)	Percent Reduction in Isoflurane ([1]; rats, 60 mg/kg i.p., relative to 1.2% isoflurane)	Hemodynamic Effects [2]	Hemodynamic Effects ([2]; ip, 60 mg/kg)
CC(O)(C(N)=O)c1ccccc1 (racemic) [Themisone, α-hydroxy-α-methylbenzeneacetamide]	toxic (blood dyscrasias, rash)	no anesthetic activity	4 out of 4	very potent anticonvulsant	anticonvulsant activity	–	–	–	–	–	–	–	–
NC(=O)C(O)(c1ccccc1)C(F)(F)F (stereo not shown) [Compound 17, 3,3,3-Trifluoro-2-hydroxy-2-phenyl-propionamide]	–	–	–	–	–	9 mg/kg	300 mg/kg	surgical anesthesia	sixty	0.65%	46%	no hemodynamic effects	none
